Measured values published in US10080761B2, “Method for treating recurring skin and mucous membrane diseases caused by HSV-1 and HSV-2” (priority 2013, dated 2018).

Test system: HSV-1 or HSV-2 infection
Assay: Treatment of a herpes relapse in patients with medium or severe recurring form (Example 1)
Format: in vivo
Details: many years of earlier treatment, cream and pills

With `Nc1nc2c(ncn2COCCO)c(=O)[nH]1` [Aciclovir] the “reduction of the number of relapses by previously used preparations” value was “did not reduce the number of relapses”.
